Article PMC6143625, “A high throughput screen for next-generation leads targeting malaria parasite transmission” (Nature Communications, 2018)
Like-named read-outs stand apart in the source and are kept apart here.

Tests used:
[1] = system: P. falciparum male gamete formation; assay: Pf DGFA add-in format, male readout; type: cell-based, Plasmodium falciparum; settings: for IC50: Plasmodium falciparum, 0h preincubation/add-in
Protocol: In profiling mode, the Pf DGFA was performed in 96-well plates[23] in wash-out and add-in formats to aid manual manipulation steps. In the wash-out format, gametocytes were incubated for 24 h with test compounds in round-bottomed 96 well plates and then culture medium replaced three times over 6 h, to remove as much of the compound as possible from the well. […] In add-in format, gametocytes were added directly to flat-bottomed 96-well plates containing test compounds, ookinete medium and anti-Pfs25.

HepG2 cells = assay: HepG2 toxicity (CellTiter-Glo, parallel to liver stage assay); type: cell-based, human; settings: human, 48 h
Protocol: Compound inhibition of P. berghei sporozoite liver infection was assessed in a high-throughput luciferase assay. 1536-well plates (789173-F, Greiner Bio-One) were pre-seeded with 5 µl HepG2-A16-CD81^EGFP cells grown in DMEM (11965–092, Invitrogen) containing 10% FBS (35–011-CV, Corning) and 1× Pen Strep Glutamine (10378–016, Invitrogen). Then, 50 nl of compound in DMSO was dispensed in 12-point serial dilution dose-response format (50 µM to 2.82 × 10^−4 µM), and incubated overnight.A. stephensi mosquitoes infected with P. berghei-ANKA-GFP-Luc-SMCON (Pb-Luc)[41] sporozoites bearing the antifolate-resistance-conferring Toxoplasma gondii dihydrofolate reductase-thymidylate synthase selectable marker, pyR2. After dissection, ~1000 sporozoites in 5 µl screening media (DMEM, 11965–092, Invitrogen; 5% FBS, 35–011-CV, Corning; 5x Pen Strep Glutamine, 10378–016, Invitrogen) were added per well and incubated for 48 h (37 °C, 5% CO2). Bioluminescence was measured using an EnVision microplate reader (Perkin Elmer), following the addition of 2 µl per well of Bright-Glo™ (Promega). Compound toxicity against HepG2 cells was determined in parallel by measuring cellular ATP levels reported by luciferase activity. Methods were similar to the P. berghei liver stage assay, except for the addition of CellTiter-Glo® (Promega) as a detection reagent. DMSO (0.5%) was used as a negative control in both assays, with Atovaquone (5 µM) and Puromycin (10 µM) acting as positive controls in the P. berghei and toxicity assays, respectively.

[2] = system: P. falciparum stage V female gametocytes (female gamete formation); assay: P. falciparum dual gamete formation assay (Pf DGFA), female readout (Pfs25 expression), 48 h carry-over format; type: cell-based, Plasmodium falciparum NF54; settings: Plasmodium falciparum; for inhibition at 2 µM: primary screen, single replicate
[3] = system: Stage IV–V 3D7 gametocytes; assay: Gametocytocidal ATP-based bioluminescence assay (GC-ATP); type: cell-based, Plasmodium falciparum 3D7; settings: Plasmodium falciparum, 3D7; 48h incubation; read-out: Pf late stage gametocyte (ATP depletion) IC50
Protocol: The metabolic viability of late stage gametocytes was determined using a gametocyte ATP bioluminescence assay. Stage IV–V 3D7 gametocyte cultures were double-purified by density gradient sedimentation over NycoPrep® followed by magnetic isolation. Then, parasites (50 µl per well containing 12,500 gametocytes) were added to compound pre-dispensed 384-well plates (781091, Greiner) and incubated at 37 °C for 48 h under 5% CO2/3% O2/92% N2. BacTiter-Glo® kit (G8231, Promega) was used to determine the ATP levels of viable parasites according to manufacturer’s instructions. After reagent addition (50 µl per well), luminescence of the plates was measured using a microplate reader (HTS counter Victor, Wallac).

[4] = system: P. falciparum 3D7 asexual blood stages; assay: Whole-cell time extended asexual growth assay (pLDH); type: cell-based; settings: Plasmodium falciparum; for inhibition at 2 µM: primary screen, read-out: %Inh Asex stages @2uM
Protocol: Asexual activity was assayed via Plasmodium lactate dehydrogenase activity (pLDH), a surrogate of asexual parasite growth. […] 2 µM artesunate and DMSO were used as the positive and negative controls, respectively. […] After plate mixing, NBT reduction was measured by absorbance at 650 nm using Envision (Perkin Elmer).

[5] = 24h preincubation/carry-over, read-out: Pf DGFA Female IC50
[6] = 48 h, dose response retest of primary hits, 48 h incubation, read-out: Female IC50
[7] = 48h preincubation/carry-over, read-out: Pf DGFA Female IC50
[8] = 72h incubation, read-out: Pf Asexual IC50
[9] = dose response retest, 72 h, read-out: IC50 (µM) Asex stages

In the case of CCOc1ccc2ccccc2c1CNCC1CCNCC1.Cl.Cl [DDD01255740], the IC50 [1] is reported as > 10 µM, the “Human HepG2 assay TOX50” value (HepG2 cells) is reported as >50.0 µM and the IC50 [2, 5] is reported as > 25 µM. For the same compound, the IC50 [2, 6] was > 10 µM, the IC50 [2, 7] was 1.88 µM and the inhibition at 2 µM ([2]; 48 h incubation) was < 30%. The IC50 [3] was > 10 µM and the IC50 [4, 8] was 3.56 µM.
Cc1ccc(-c2cc(C(=O)NCCC3=CCCCC3)[nH]n2)o1 [DDD01255968] was tested, and the IC50 [1] was 0.32 µM, the “activity in the add-in format” value ([1]; profiling) was “active” and the “Human HepG2 assay TOX50” value (HepG2 cells) was >50.0 µM. For the same compound, the IC50 [2, 5] was > 12.5 µM, the IC50 [2, 6] was > 10 µM and the IC50 [2, 7] was > 12.5 µM. For the same compound, the inhibition at 2 µM ([2]; 48 h incubation) was < 30%, the IC50 [3] was > 10 µM and the IC50 [4, 8] was > 20 µM.
In the case of CCn1ncc(Br)c1CN(C)S(=O)(=O)c1ccc(C)cc1 [DDD01259521], the IC50 [1] is reported as > 10 µM, the “Human HepG2 assay TOX50” value (HepG2 cells) is reported as >50.0 µM and the IC50 [2, 5] is reported as > 12.5 µM. For the same compound, the IC50 [2, 7] was > 12.5 µM, the IC50 [3] was > 10 µM and the IC50 [4, 8] was 1.06 µM. The IC50 [4, 9] was 1.02 µM and the inhibition at 2 µM ([4]; 72 h) was 56.1%.
For c1cnnc(N2CCCC2CNc2ncnc3sccc23)c1 (stereo not drawn) [DDD01299704], the IC50 [1] was > 10 µM, the “Human HepG2 assay TOX50” value (HepG2 cells) was >50.0 µM and the IC50 [2, 5] was > 12.5 µM. The IC50 [2, 7] was > 12.5 µM, the IC50 [3] was > 10 µM and the IC50 [4, 8] was 0.44 µM. It also gave an IC50 [4, 9] of 0.532 µM and an inhibition at 2 µM ([4]; 72 h) of 66.7%.
